Laboratory results taken from patent US4611066A, “Bryostatins 4 to 8” (Arizona State University, priority 1984, dated 1986).
Converted amounts (≈) assume the structure as drawn.

Assays:
[1] = system: P 388 (PS) mouse tumor; assay: P 388 (PS) mouse tumor test, life extension in vivo
From the text: The dried methylene chloride extracts (derived from the shipping solution and from extraction of the chopped animals) were further separated by taking small portions and subjecting each to solvent partitioning beginning with methanol:water (9:1)/hexane (4 times). […] The aqueous mthanol layers were further diluted with water to a ratio of 8:2 and were extracted repeatedly with carbon tetrachloride (9 times). The carbon tetrachloride extracts were dried and assayed for antitumor activity.
(§1) The isolation and purification methods chosen can be monitored at each step by performing in vitro and/or in vivo antitumor tests as described by R. I. Geran, N. H. Greenberg, M. M. MacDonald, A. M. Schumacher and B. S. Abbot in Cancer Chemother. Rep. Part 3, Vol. 3 (2): 1-103 (1972); and by Schmidt, J. M.; Pettit, G. R. in Experimentia, 34: 659-660 (1978). Such tests include the determination of the concentration of active material rquired to inhibit the growth of tumor cells in culture, (e.g., the concentration required to inhibit growth by 50 percent or the ED50) and of the dose of active material required to prolong the life of mice bearing transplanted tumors.

[2] = system: murine P388 lymphocytic leukemia (PS cell line); assay: inhibition of growth of PS tumor cells in culture (ED50); type: cell-based; details: for IC50: Mus musculus
From the text: as §1

SMILES	IC50 ([2]; P388, PS cell line) [ng/mL]	in vivo life extension ([1]; at 185 μg/kg) [%]	further results
CCCC(=O)OC1/C(=C/C(=O)OC)CC2C[C@H]([C@@H](C)O)OC(=O)C[C@H](O)C[C@@H]3C[C@H](OC(=O)CC(C)C)C(C)(C)[C@](O)(C[C@@H]4CC(=CC(=O)OC)CC(/C=C/C(C)(C)C1(O)O2)O4)O3 (some centres unmarked) [Bryostatin 4]			increase in life extension ([1]; at 46 μg/kg): 62%
COC(=O)C=C1CC2/C=C/C(C)(C)C3(O)OC(C/C(=C\C(=O)OC)C3OC(C)=O)C[C@H]([C@@H](C)O)OC(=O)C[C@H](O)C[C@@H]3C[C@H](OC(=O)CC(C)C)C(C)(C)[C@](O)(C[C@H](C1)O2)O3 (some centres unmarked) [Bryostatin 5]	0.26 to 1.3 (≈ 0.3 to 1.5 nM)	88	
CCCC(=O)O[C@H]1C[C@H]2C[C@@H](O)CC(=O)O[C@@H]([C@@H](C)O)C[C@@H]3C/C(=C\C(=O)OC)[C@H](OC(C)=O)[C@@](O)(O3)C(C)(C)/C=C/[C@H]3C/C(=C\C(=O)OC)C[C@@H](C[C@](O)(O2)C1(C)C)O3 [Bryostatin 6]		82	ED50 ([2]; PS cell line): 3 ng/mL (≈ 3.52 nM)
COC(=O)C=C1CC2/C=C/C(C)(C)C3(O)OC(C/C(=C\C(=O)OC)C3OC(C)=O)C[C@H]([C@@H](C)O)OC(=O)C[C@H](O)C[C@@H]3C[C@H](OC(C)=O)C(C)(C)[C@](O)(C[C@H](C1)O2)O3 (some centres unmarked) [Bryostatin 7]	0.026 (≈ 0.0315 nM)		in vivo life extension ([1]; at 92 μg/kg): 77%
CCCC(=O)OC1/C(=C/C(=O)OC)CC2C[C@H]([C@@H](C)O)OC(=O)C[C@H](O)C[C@@H]3C[C@H](OC(=O)CCC)C(C)(C)[C@](O)(C[C@@H]4CC(=CC(=O)OC)CC(/C=C/C(C)(C)C1(O)O2)O4)O3 (some centres unmarked) [Bryostatin 8]			IC50 ([2]; murine P388 lymphocytic leukemia assay (PS cell line), unit inferred): 1.3 ng/mL (≈ 1.48 nM)
